# Measured values as given in patent US11623940B2, “Methods of nucleic acid synthesis comprising polyphosphate containing species” (Nuclera Nucleics Ltd., priority 2017, dated 2023).
# “Also recorded” adds a separate entry of the source.
# Assays:
# terminal transferase [1] = assay: Terminal transferase-mediated addition of capping polyphosphate species to initiator strand (denaturing polyacrylamide gel); assay type: biochemical; conditions: for conversion of initiator strand of length N by terminal transferase-mediated addition: FIG. 1 lanes 2 and 3
# Description: (§1) FIG. 1: Incorporation of dideoxynucleoside triphosphates by a terminal transferase prevents subsequent DNA synthesis. Lane 1: initiator sequence; Lane 2: dideoxyadenosine triphosphate addition; Lane 3: dideoxythymidine triphosphate addition; Lanes 4-6: duplicates of lanes 1-3 exposed to dCTP tailing conditions; Lane 7: initiator sequence. While dCTP tailing leads to the formation of a range of higher molecular weight products (Lane 4), prior treatment with a terminal transferase and dideoxynucleoside triphosphate prevents the formation of such higher molecular weight species (Lanes 5 and 6).
# FIG. 2: Incorporation of tripolyphosphate by a terminal transferase prevents subsequent DNA synthesis. Lane 1: initiator sequence; Lane 2: 1 mM sodium tripolyphosphate; Lane 3: 10 mM sodium tripolyphosphate; Lane 4: 50 mM sodium tripolyphosphate; Lanes 5-7: duplicates of lanes 2-4 exposed to dCTP tailing conditions. Reaction products were analysed by denaturing polyacrylamide gel and visualized by an internal FAM dye.
# (§2) Data is presented herein which exemplifies the utility of dideoxynucleoside triphosphates as a capping agent by incorporating a dideoxynucleotide using a terminal transferase, and so preventing polymerization of deoxycytidine triphosphate (dCTP) in a subsequent step with terminal transferase (FIG. 1). […] When the initiator strand is exposed to terminal transferase in the presence of dCTP, many higher molecular weight products are formed (a smear on the gel) due to the uncontrolled incorporation of dCTP into the initiator strand (lane 4). […] Lane 7 is a duplicate of lane 1.
# (§3) Data is presented herein which exemplifies the utility of tripolyphosphate as a capping agent by incorporating a phosphate moiety on the 3′-terminus of an oligonucleotide using a terminal transferase, and so preventing polymerization of dCTP in a subsequent step with terminal transferase (FIG. 2). […] The new species migrates faster on the polyacrylamide gel due to the additional charge presented by the new 3′-phosphate moiety. […] Following incubation with the terminal transferase and tripolyphosphate, the mixture was removed. The initiator strand was then incubated with a terminal transferase and canonical dCTP. If a free 3′-hydroxyl is present, terminal transferase will add many dCTP in an uncontrolled fashion to generate higher molecular weight oligonucleotides.
# terminal transferase [2] = assay: dCTP tailing with terminal transferase after capping pre-treatment of initiator strand (gel); assay type: biochemical; conditions: for incorporation of dCTP into pre-treated initiator strand when exposed to terminal transferase and dCTP: FIG. 1 lanes 5 and 6, pre-treated with dideoxynucleoside triphosphate
# Description: as §1
# FIG. 2: Incorporation of tripolyphosphate by a terminal transferase prevents subsequent DNA synthesis. […] Reaction products were analysed by denaturing polyacrylamide gel and visualized by an internal FAM dye.
# as §2, §3
Compound,conversion of initiator strand of length N by terminal transferase-mediated addition (terminal transferase [1]),incorporation of dCTP into pre-treated initiator strand when exposed to terminal transferase and dCTP (terminal transferase [2]),"terminal transferase mediated 3′-phosphorylation of initiator strand (terminal transferase [1]; 1 mM tripolyphosphate, FIG. 2 lane 2)","terminal transferase mediated 3′-phosphorylation of initiator strand (terminal transferase [1]; 5 mM tripolyphosphate, FIG. 2 lane 3)","terminal transferase mediated 3′-phosphorylation of initiator sequence (terminal transferase [1]; 10 mM sodium tripolyphosphate, FIG. 2 lane 3 (figure legend))","terminal transferase mediated 3′-phosphorylation of initiator strand (terminal transferase [1]; 50 mM tripolyphosphate, FIG. 2 lane 4)","dCTP polymerization by terminal transferase after capping pre-incubation (terminal transferase [2]; pre-incubation with 1 mM tripolyphosphate, FIG. 2 lane 5)","dCTP polymerization by terminal transferase after capping pre-incubation (terminal transferase [2]; pre-incubation with 5 mM tripolyphosphate, FIG. 2 lane 6)","dCTP polymerisation by terminal transferase after capping pre-incubation (terminal transferase [2]; pre-incubation with 10 mM sodium tripolyphosphate, FIG. 2 lane 6 (figure legend))","dCTP polymerization by terminal transferase after capping pre-incubation (terminal transferase [2]; pre-incubation with 50 mM tripolyphosphate, FIG. 2 lane 7)"
"Nc1ncnc2c1ncn2[C@H]1CC[C@@H](COP(=O)(O)OP(=O)(O)OP(=O)(O)O)O1 [ddATP, dideoxyadenosine triphosphate]",converted to an N+1 species,resistant to incorporation of dCTP,,,,,,,,
sodium tripolyphosphate,,,partially converted to a new 3′-phosphorylated species; also recorded: converted to a 3′-phosphorylated initiator sequence,partially converted to a new 3′-phosphorylated species,converted to a 3′-phosphorylated initiator sequence,does not proceed,largely prevents this polymerization; also recorded: resistant to enzyme mediated DNA polymerisation,largely prevents this polymerization,resistant to enzyme mediated DNA polymerisation,complete polymerization to higher molecular weight species
dideoxythymidine triphosphate [ddTTP],converted to an N+1 species,resistant to incorporation of dCTP,,,,,,,,
